The target in experiment [1] is PI3-kinase p110-delta/p85-alpha (Homo sapiens, UniProt O00329). In words: Inhibition of N-terminal His6-tagged recombinant full-length human p110delta/untagged recombinant full length p85alpha expressed in baculovirus infected Sf21 cells using phosphatidylinositol as substrate in presence of gamma-32P-ATP after 5 mins by thin layer chromatographic method.
Experiment [2] addresses Phosphatidylinositol 4,5-bisphosphate 3-kinase catalytic subunit gamma isoform (Homo sapiens, UniProt P48736). As to the kind of experiment: Inhibition of recombinant human C-terminal His6-tagged p110gamma expressed in insect cells using phosphatidylinositol as substrate in presence of gamma-32P-ATP after 5 mins by thin layer chromatographic method.
Experiment [3] is described as follows: Antiproliferative activity against Balb/c mouse splenic B cells preincubated for 30 mins followed by LPS or F(ab')2 donkey anti-mouse IgM and recombinant mouse IL4 stimulation measured after 72 hrs by Alamar Blue reduction assay. The experiment is classed as functional, cell-based. Background: Alamar Blue is a resazurin reagent that responds to reducing activity.

The target of another experiment is PI3K p110 beta/p85 alpha (Homo sapiens, UniProt P42338). As to the kind of experiment: Inhibition of N-terminal His6-tagged recombinant full-length human p110beta/untagged recombinant full length p85alpha expressed in baculovirus infected Sf21 cells using phosphatidylinositol as substrate in presence of gamma-32P-ATP after 5 mins by thin layer chromatographic method.

For experiment [4], the target named is PI3-kinase p110-alpha/p85-alpha (Homo sapiens, UniProt P42336). In words: Inhibition of N-terminal His6-tagged recombinant full-length human p110alpha/untagged recombinant full length human p85alpha expressed in baculovirus infected Sf21 cells using phosphatidylinositol as substrate in presence of gamma-32P-ATP after 5 mins by thin layer chromatographic method.
Chain of PI3-kinase p110-alpha/p85-alpha (P27986 whole entry): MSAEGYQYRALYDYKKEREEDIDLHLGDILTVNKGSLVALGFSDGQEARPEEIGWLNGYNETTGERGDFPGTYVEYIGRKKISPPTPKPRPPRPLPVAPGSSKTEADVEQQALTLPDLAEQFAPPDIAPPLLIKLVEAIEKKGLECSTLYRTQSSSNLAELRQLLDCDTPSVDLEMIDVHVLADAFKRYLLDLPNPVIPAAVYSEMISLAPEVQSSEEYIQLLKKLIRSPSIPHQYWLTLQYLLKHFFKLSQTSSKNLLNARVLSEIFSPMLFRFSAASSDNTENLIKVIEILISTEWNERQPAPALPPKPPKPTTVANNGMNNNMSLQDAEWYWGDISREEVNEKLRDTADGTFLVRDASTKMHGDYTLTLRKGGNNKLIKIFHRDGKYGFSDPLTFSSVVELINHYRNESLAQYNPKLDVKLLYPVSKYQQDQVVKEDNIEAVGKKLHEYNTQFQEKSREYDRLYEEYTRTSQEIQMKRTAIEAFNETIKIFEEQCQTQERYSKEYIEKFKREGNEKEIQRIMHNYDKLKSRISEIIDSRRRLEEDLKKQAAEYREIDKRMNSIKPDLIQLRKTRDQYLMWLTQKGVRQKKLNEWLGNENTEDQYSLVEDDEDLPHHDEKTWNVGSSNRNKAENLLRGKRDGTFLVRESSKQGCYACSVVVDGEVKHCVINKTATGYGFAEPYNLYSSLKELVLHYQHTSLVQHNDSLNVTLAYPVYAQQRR
Chain of PI3-kinase p110-alpha/p85-alpha (P42336 whole entry): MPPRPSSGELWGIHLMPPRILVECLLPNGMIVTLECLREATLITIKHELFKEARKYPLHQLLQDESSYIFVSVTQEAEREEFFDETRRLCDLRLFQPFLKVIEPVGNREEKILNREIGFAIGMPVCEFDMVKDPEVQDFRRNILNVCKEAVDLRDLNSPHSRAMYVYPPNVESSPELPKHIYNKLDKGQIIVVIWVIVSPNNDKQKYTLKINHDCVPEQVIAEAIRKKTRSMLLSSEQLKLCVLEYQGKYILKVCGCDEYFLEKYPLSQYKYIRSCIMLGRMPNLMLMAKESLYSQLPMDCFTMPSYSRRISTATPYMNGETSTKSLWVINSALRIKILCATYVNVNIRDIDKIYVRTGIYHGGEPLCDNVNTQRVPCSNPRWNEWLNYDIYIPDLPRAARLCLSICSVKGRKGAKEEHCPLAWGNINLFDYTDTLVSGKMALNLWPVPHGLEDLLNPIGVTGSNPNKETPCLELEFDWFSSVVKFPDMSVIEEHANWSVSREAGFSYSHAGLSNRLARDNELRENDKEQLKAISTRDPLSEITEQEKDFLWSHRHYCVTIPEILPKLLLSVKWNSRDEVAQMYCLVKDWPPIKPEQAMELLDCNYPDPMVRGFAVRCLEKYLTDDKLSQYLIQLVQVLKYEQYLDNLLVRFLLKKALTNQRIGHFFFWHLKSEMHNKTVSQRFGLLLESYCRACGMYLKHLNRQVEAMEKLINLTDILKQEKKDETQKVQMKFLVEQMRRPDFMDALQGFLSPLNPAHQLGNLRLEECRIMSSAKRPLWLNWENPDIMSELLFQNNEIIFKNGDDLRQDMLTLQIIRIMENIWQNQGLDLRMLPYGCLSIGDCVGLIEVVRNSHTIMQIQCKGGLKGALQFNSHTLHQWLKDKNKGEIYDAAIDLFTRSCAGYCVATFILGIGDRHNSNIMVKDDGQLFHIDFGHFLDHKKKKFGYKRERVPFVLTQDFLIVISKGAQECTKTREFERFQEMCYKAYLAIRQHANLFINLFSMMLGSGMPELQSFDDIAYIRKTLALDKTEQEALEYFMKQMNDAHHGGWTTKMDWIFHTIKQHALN

Chain of PI3-kinase p110-delta/p85-alpha (P27986 whole entry, canonical isoform): as the sequence (P27986 whole entry) above
Chain of PI3-kinase p110-delta/p85-alpha (O00329 whole entry, canonical isoform): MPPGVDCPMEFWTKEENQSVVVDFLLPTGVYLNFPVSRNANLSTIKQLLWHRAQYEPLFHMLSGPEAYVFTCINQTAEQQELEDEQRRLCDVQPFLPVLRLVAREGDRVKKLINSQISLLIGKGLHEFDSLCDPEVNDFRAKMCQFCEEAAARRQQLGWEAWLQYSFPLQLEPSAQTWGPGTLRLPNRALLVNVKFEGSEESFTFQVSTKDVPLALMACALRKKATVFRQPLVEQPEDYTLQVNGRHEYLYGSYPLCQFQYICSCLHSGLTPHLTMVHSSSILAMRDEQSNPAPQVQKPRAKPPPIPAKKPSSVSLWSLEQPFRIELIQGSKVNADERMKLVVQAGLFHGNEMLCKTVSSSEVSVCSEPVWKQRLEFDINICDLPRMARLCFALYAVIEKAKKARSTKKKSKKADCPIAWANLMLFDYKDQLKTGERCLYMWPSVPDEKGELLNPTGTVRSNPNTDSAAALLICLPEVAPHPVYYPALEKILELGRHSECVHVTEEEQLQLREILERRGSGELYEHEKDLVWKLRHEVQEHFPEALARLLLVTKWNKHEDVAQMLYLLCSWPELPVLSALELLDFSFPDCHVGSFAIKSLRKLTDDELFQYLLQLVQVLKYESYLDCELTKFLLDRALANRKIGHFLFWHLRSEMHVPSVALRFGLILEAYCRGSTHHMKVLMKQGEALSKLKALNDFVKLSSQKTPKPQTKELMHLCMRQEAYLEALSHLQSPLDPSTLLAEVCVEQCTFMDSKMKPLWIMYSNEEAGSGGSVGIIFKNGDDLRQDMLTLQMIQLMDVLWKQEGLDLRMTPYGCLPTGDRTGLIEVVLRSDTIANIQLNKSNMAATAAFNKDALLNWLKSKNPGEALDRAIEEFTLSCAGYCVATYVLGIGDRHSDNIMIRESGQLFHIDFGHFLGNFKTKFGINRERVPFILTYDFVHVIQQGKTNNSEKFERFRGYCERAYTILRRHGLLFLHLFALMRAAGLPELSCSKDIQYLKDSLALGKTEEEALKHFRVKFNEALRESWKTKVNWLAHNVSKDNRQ
Chain of PI3K p110 beta/p85 alpha (P27986 whole entry): as the sequence (P27986 whole entry) above
Chain of PI3K p110 beta/p85 alpha (P42338 whole entry): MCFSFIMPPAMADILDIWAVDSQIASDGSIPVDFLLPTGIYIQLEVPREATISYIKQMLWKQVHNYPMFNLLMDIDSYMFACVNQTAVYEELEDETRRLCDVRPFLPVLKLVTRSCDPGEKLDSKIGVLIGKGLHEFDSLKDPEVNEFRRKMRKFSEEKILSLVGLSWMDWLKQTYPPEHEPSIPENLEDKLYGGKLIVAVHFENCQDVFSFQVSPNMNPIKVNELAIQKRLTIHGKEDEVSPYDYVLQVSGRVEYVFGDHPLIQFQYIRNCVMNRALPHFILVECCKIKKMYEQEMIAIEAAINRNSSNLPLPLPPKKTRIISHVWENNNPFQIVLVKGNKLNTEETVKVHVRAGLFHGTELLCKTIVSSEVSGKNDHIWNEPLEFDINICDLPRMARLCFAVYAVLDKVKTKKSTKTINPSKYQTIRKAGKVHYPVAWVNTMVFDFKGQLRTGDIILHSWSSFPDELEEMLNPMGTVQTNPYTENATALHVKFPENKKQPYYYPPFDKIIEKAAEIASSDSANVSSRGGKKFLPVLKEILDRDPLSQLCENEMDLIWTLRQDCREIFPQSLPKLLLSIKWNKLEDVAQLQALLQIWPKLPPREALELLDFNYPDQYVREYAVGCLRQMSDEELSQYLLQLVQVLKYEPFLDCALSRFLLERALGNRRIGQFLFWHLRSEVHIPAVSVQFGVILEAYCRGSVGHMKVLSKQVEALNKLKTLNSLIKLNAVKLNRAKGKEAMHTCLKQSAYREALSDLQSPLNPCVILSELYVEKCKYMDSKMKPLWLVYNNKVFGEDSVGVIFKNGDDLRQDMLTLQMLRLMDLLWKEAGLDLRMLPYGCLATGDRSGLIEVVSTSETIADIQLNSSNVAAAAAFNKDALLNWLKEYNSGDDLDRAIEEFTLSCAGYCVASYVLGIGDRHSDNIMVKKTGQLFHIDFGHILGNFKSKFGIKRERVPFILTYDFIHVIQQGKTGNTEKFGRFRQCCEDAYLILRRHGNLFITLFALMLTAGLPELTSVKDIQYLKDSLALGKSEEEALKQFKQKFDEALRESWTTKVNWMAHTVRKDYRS
Chain of Phosphatidylinositol 4,5-bisphosphate 3-kinase catalytic subunit gamma isoform (P48736 whole entry, canonical isoform): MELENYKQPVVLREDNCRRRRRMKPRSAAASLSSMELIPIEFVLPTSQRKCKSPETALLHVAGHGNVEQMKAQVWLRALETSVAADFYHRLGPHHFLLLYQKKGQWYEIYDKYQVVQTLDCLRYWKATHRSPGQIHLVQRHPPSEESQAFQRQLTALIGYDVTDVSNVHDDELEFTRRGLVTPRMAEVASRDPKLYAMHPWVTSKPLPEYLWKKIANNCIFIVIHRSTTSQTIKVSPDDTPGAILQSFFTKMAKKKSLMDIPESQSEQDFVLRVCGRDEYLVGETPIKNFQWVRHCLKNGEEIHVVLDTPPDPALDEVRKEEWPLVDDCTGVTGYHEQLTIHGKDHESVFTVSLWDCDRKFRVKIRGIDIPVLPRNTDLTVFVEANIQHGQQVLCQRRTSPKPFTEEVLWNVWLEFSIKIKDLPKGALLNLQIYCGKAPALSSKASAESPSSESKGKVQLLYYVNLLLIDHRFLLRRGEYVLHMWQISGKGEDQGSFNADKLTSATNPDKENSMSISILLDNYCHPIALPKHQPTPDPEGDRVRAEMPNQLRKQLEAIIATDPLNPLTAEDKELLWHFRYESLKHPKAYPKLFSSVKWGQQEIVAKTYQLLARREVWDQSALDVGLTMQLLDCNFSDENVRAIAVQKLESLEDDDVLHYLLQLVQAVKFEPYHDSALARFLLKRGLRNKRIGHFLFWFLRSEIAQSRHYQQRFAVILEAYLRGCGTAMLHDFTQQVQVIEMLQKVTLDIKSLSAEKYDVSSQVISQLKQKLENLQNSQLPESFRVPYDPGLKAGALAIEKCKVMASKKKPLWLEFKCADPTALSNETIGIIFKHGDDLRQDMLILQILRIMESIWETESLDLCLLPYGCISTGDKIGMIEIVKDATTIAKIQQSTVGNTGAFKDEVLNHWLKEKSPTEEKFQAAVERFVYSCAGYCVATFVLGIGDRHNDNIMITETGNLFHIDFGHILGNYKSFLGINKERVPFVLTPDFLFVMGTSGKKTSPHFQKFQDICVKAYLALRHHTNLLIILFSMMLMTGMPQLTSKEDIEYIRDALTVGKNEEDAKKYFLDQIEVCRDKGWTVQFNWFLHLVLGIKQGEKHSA

Consider `Cc1cccc2cc([C@H](C)Nc3nc(F)nc4[nH]cnc34)n(-c3ccccc3)c(=O)c12`, for which the IC50 in experiment [1] and in experiment [2] was < 100 nM in each case. Further, the EC50 in experiment [3] was < 100 nM.
For `CC(=O)Nc1nc2ccc(-c3nn(Cc4cc5cccc(C)c5c(=O)n4-c4ccccc4C)c4ncnc(N)c34)cc2[nH]1`, the IC50 in experiment [1] and in experiment [2] was < 100 nM throughout. The EC50 in experiment [3] was < 100 nM.
Turning to `Cc1cccc2cc(Cn3cnc4c(N)ncnc43)n(-c3ccccc3F)c(=O)c12`, the IC50 in experiment [1] was < 10000 nM; in experiment [2], > 10000 nM. The EC50 in experiment [3] was < 10000 nM.
On to `Cc1cccc2cc(C(C)Nc3ncnc4[nH]cnc34)n(-c3ccc(F)cc3)c(=O)c12` (centres undefined), for which the IC50 in experiment [1] and in experiment [2] was < 100 nM each time. In experiment [3], the EC50 is < 100 nM.
With `Cc1cccc2cc(Cn3nc(C#CC4CC4)c4c(N)ncnc43)n(-c3ccccc3F)c(=O)c12`, the IC50 was < 1000 nM in experiment [1] and > 10000 nM in experiment [2]. Also, the EC50 in experiment [3] was < 1000 nM.
For `Cc1cccc2cc([C@H](C)Nc3ncnc4[nH]cc(Br)c34)n(C3CC3)c(=O)c12`, the IC50 (in experiment [1]; at PI3K p110 beta/p85 alpha; in experiment [2]) was < 100 nM throughout.
`Cc1cccc2cc([C@H](C)Nc3ncnc4[nH]cc(C(N)=O)c34)n(-c3ccccc3)c(=O)c12`: the IC50 (in experiment [1]; at PI3K p110 beta/p85 alpha; in experiment [2]) was < 100 nM in each case.
For the compound `Cc1cccc2cc(Cn3nc(-c4ccc5oc(N)nc5c4)c4c(N)ncnc43)n(C3CCC3)c(=O)c12`, the IC50 in experiment [1] and in experiment [2] was < 100 nM each time. Besides, the EC50 in experiment [3] is < 100 nM.
In the case of `Cc1cccc2cc(C(C)Nc3ncnc4[nH]cnc34)n(C3CCCC3)c(=O)c12` (centres undefined), the IC50 in experiment [1] and in experiment [2] was < 100 nM each time. Moreover, the EC50 in experiment [3] is < 100 nM.
As to `Cc1ccccc1-n1c(Cn2nc(-c3ccc4nc(N)[nH]c4c3)c3c(N)ncnc32)cc2cccc(C)c2c1=O`, the IC50 in experiment [1] and in experiment [2] was < 100 nM throughout. The EC50 in experiment [3] is < 100 nM.
As to `Cc1cccc2cc(Cn3nc(CF)c4c(N)ncnc43)n(-c3ccccc3)c(=O)c12`, the IC50 in experiment [1] and in experiment [2] was < 100 nM each time. Further, the EC50 in experiment [3] was < 100 nM.
`Cc1cccc2cc([C@H](C)Nc3ncnc4[nH]nc(Cl)c34)n(-c3ccccc3)c(=O)c12`: the IC50 in experiment [1] and in experiment [2] was < 100 nM each time.
In the case of `Cc1cccc2cc([C@H](C)Nc3ncnc4[nH]cnc34)n(-c3cccc(F)c3)c(=O)c12`, the IC50 in experiment [2] was < 100 nM. Further, the EC50 in experiment [3] is < 100 nM.
Take `Cc1ccccc1-n1c(Cn2nc(CF)c3c(N)ncnc32)cc2cccc(C)c2c1=O`: the IC50 in experiment [1] and in experiment [2] was < 100 nM in each case. Also, the EC50 in experiment [3] was < 100 nM.
Take `Cc1cccnc1-n1c(Cn2nc(-c3ccc4oc(N)nc4c3)c3c(N)ncnc32)cc2cccc(C)c2c1=O`: the IC50 in experiment [1] and in experiment [2] was < 100 nM throughout.
With `Cc1cccc2cc([C@H](C)Nc3ncnc4[nH]cnc34)n(-c3ccccc3)c(=O)c12`, the half-inhibitory concentration (IC50) in experiment [1] and in experiment [2] was < 100 nM in each case. Also, the EC50 in experiment [3] was < 100 nM.
Take `Cc1ccccc1-n1c(Cn2nc(-c3ccc4nc(N)oc4c3)c3c(N)ncnc32)cc2cccc(C)c2c1=O`: the IC50 in experiment [1] and in experiment [2] was < 100 nM throughout. In experiment [3], the EC50 is < 100 nM.
Take `CC(=O)Nc1nc2ccc(-c3nn(Cc4cc5cccc(C)c5c(=O)n4-c4ccccc4C)c4ncnc(N)c34)cc2o1`: the IC50 in experiment [1] and in experiment [2] was < 100 nM each time.
As for `Cc1cccc2cc([C@H](C)Nc3ncnc4[nH]cnc34)n(C(C)C)c(=O)c12`, the IC50 in experiment [2] was < 100 nM. For the same compound, the 50% effective concentration (EC50) in experiment [3] is < 100 nM.
Consider `Cc1cccc2cc([C@H](C)Nc3ncnc4[nH]ccc34)n(-c3ccccc3)c(=O)c12`, for which the IC50 in experiment [1] and in experiment [2] was < 100 nM throughout. For the same compound, the EC50 in experiment [3] was < 100 nM.
As to `CCC(Nc1ncnc2[nH]cnc12)c1cc2cccc(C)c2c(=O)n1-c1ccccc1` (centres undefined), the IC50 in experiment [1] and in experiment [2] was < 100 nM each time. The EC50 in experiment [3] was < 100 nM.
As for `CCC(Nc1ncnc2[nH]cnc12)c1cc2cccc(C)c2c(=O)n1-c1ccc(F)cc1` (centres undefined), the IC50 in experiment [1] and in experiment [2] was < 100 nM each time. In addition, the EC50 in experiment [3] is < 100 nM.
`Cc1cccc2cc(Cn3nc(-c4ccc5nc(N)[nH]c5c4)c4c(N)ncnc43)n(-c3ccccc3)c(=O)c12`: the IC50 in experiment [1] and in experiment [2] was < 100 nM each time. Further, the EC50 in experiment [3] was < 100 nM.
As to `Cc1cccc2cc([C@H](C)Nc3ncnc4[nH]cnc34)n(C3CCC3)c(=O)c12`, the IC50 in experiment [2] was < 100 nM. Besides, in experiment [3], the EC50 is < 100 nM.
`CC(=O)Nc1nc2cc(-c3nn(Cc4cc5cccc(C)c5c(=O)n4-c4ccccc4C)c4ncnc(N)c34)ccc2o1`: the IC50 in experiment [1] and in experiment [2] was < 100 nM throughout. Further, the EC50 in experiment [3] was < 100 nM.
`Cc1cccc2cc(Cn3nc(-c4ccc5oc(N)nc5c4)c4c(N)ncnc43)n(-c3ccccc3)c(=O)c12`: the IC50 in experiment [1] and in experiment [2] was < 100 nM each time. For the same compound, the EC50 in experiment [3] is < 100 nM.
In the case of `Cc1ccccc1-n1c(Cn2nc(-c3ccc4sc(N)nc4c3)c3c(N)ncnc32)cc2cccc(C)c2c1=O`, the IC50 in experiment [1] and in experiment [2] was < 100 nM each time. The EC50 in experiment [3] was < 100 nM.
As to `Cc1cccnc1-n1c(Cn2nc(-c3cccc(O)c3)c3c(N)ncnc32)cc2ccccc2c1=O`, the IC50 is < 1000 nM in experiment [1] and < 10000 nM in experiment [2].
With `Cc1ccccc1-n1c(Cn2nc(-c3nn[nH]n3)c3c(N)ncnc32)cc2cccc(C)c2c1=O`, the IC50 in experiment [1] and in experiment [2] was < 100 nM throughout. For the same compound, the EC50 in experiment [3] is < 10000 nM.
For `Cc1cccc2cc([C@H](C)Nc3nc(Cl)nc4[nH]cnc34)n(-c3ccccc3)c(=O)c12`, the IC50 in experiment [1] and in experiment [2] was < 100 nM throughout. Further, in experiment [3], the EC50 was < 100 nM.
For `Cc1cccc2cc([C@H](C)Nc3nc(N)ncc3Cl)n(-c3ccccc3)c(=O)c12`, the half-inhibitory concentration (IC50) in experiment [1] and in experiment [2] was < 100 nM each time. In addition, the EC50 in experiment [3] is < 100 nM.
As to `Cc1cccc2cc(Cn3nc(-c4ccc5sc(N)nc5c4)c4c(N)ncnc43)n(-c3ccccc3)c(=O)c12`, the IC50 in experiment [1] and in experiment [2] was < 100 nM in each case. In experiment [3], the EC50 is < 100 nM.
Regarding `Cc1cccc2cc([C@H](C)Nc3nc(N)ncc3C(F)(F)F)n(-c3ccccc3)c(=O)c12`, the IC50 in experiment [1] and in experiment [2] was < 100 nM each time.
As for `Cc1cccc2cc(Cn3nc(-c4cccc(O)c4)c4c(N)ncnc43)n(C3CCCCC3)c(=O)c12`, the IC50 is < 100 nM in experiment [1], < 10000 nM on PI3K p110 beta/p85 alpha and > 10000 nM in experiment [4]. Also, in experiment [3], the EC50 was < 1000 nM.
The corresponding values for `Cc1cccc2cc(Cn3nc(I)c4c(N)ncnc43)n(C3CC3)c(=O)c12` are < 100 nM, < 10000 nM, < 10000 nM and < 1000 nM.
Consider `CC(=O)Nc1nc2ccc(-c3nn(Cc4cc5cccc(C)c5c(=O)n4-c4ccccc4)c4ncnc(N)c34)cc2s1`, for which the IC50 in experiment [1] was < 100 nM; at PI3K p110 beta/p85 alpha, < 10000 nM; in experiment [4], < 1000 nM. In addition, the EC50 in experiment [3] was < 100 nM.
`Cc1cccc2cc(Cn3nc(I)c4c(N)ncnc43)n(-c3ccccc3F)c(=O)c12`: the IC50 was < 100 nM in experiment [1] and < 1000 nM in experiment [2]. Further, in experiment [3], the EC50 was < 10000 nM.
`Cc1ccccc1-n1c(Cn2nc(-c3ccc4ncnc(N)c4c3)c3c(N)ncnc32)cc2cccc(C)c2c1=O`: the IC50 in experiment [1] was < 100 nM; at PI3K p110 beta/p85 alpha it was > 10000 nM; in experiment [4] it was < 10000 nM. In addition, the EC50 in experiment [3] was < 1000 nM.
For `Cc1cccc2cc([C@H](C)Nc3nc(N)nc4[nH]cnc34)n(-c3ccccc3)c(=O)c12`, the IC50 in experiment [1] and in experiment [2] was < 100 nM throughout.
Take `COc1ccccc1-n1c(Cn2nc(-c3cccc(O)c3)c3c(N)ncnc32)cc2cccc(C)c2c1=O`: the IC50 in experiment [1] was < 100 nM; on PI3K p110 beta/p85 alpha, < 10000 nM; in experiment [4], > 10000 nM. In addition, in experiment [3], the EC50 was < 100 nM.
Regarding `Cc1ccccc1-n1c(Cn2nc(C(F)F)c3c(N)ncnc32)cc2cccc(C)c2c1=O`, the IC50 in experiment [1] and in experiment [2] was < 100 nM throughout. In experiment [3], the EC50 was < 100 nM.
Take `Cc1cccc2cc(Cn3nc(-c4ccc5nc(N)oc5c4)c4c(N)ncnc43)n(-c3ccccc3)c(=O)c12`: in experiment [2], the IC50 was in the range of 100 to 1000 nM. For the same compound, in experiment [3], the EC50 is < 10000 nM.
Turning to `COc1cc(-c2nn(Cc3cc4cccc(C)c4c(=O)n3-c3ccccc3C)c3ncnc(N)c23)ccc1Cl`, the IC50 in experiment [1] is < 1000 nM; at PI3K p110 beta/p85 alpha, > 10000 nM; in experiment [4] it was > 10000 nM. In experiment [3], the EC50 is < 1000 nM.
Turning to `Cc1cccc2cc(Cn3nc(-c4cccc(O)c4)c4c(N)ncnc43)n(C(C)C)c(=O)c12`, the IC50 was < 100 nM in experiment [1], < 1000 nM on PI3K p110 beta/p85 alpha and > 10000 nM in experiment [4]. The EC50 in experiment [3] was < 100 nM.
As to `CC(=O)Nc1nc2ccc(-c3nn(Cc4cc5cccc(C)c5c(=O)n4-c4ccccc4)c4ncnc(N)c34)cc2[nH]1`, in experiment [2], the IC50 was < 100 nM.
With `COc1ccccc1-n1c(Cn2nc(-c3cc(O)cc(F)c3)c3c(N)ncnc32)cc2cccc(C)c2c1=O`, the values for the IC50 (in experiment [1]; at PI3K p110 beta/p85 alpha; in experiment [4]) were < 100 nM, < 10000 nM and < 10000 nM, respectively. The EC50 in experiment [3] is < 100 nM.

For orientation: IC50 means the midpoint of a concentration-inhibition curve. The term EC50 denotes the concentration needed to bring the measured effect to its halfway point.

The values are drawn from ChEMBL document CHEMBL3879901, “Substituted isoquinolin-1(2H)-ones, and methods of use thereof” (2012).
